{"source": "patent US12421232B2", "about": "“Kinase inhibitor compounds and compositions and methods of use” (ICAHN SCHOOL OF MEDICINE AT MOUNT SINAI, priority 2018, dated 2025)", "key": {"[1]": {"test_system": "human β-cells (dispersed human islet cells)", "test": "Human β-cell proliferation assay (Ki67 and insulin staining)", "assay_type": "cell-based", "conditions": "for Human β-Cell proliferation: 96 hours"}, "[2]": {"test_system": "NFAT2-GFP nuclear translocation in R7T1 rodent beta cells", "test": "NFAT2 translocation assay", "assay_type": "cell-based", "conditions": "10 μM, 24 hours", "source_text": "NFAT2T Translocation Assay. […] At least 1000 cells were counted."}, "CSNK1G2": {"target": "T1, CSNK1G2 (Homo sapiens, UniProt P78368)", "T1 construct": "purchased DiscoverX", "test": "KINOMEscan Assay (DiscoverX)", "assay_type": "binding", "conditions": "CSNK1G2; 10 μM"}, "CSNK2A1": {"target": "T2, CSNK2A1 (Homo sapiens, UniProt P68400)", "T2 construct": "purchased DiscoverX", "test": "KINOMEscan Assay (DiscoverX)", "assay_type": "binding", "conditions": "CSNK2A1; 10 μM"}, "FLT3(D835V)": {"target": "T3, FLT3(D835V) (Homo sapiens, UniProt P36888, D835V)", "T3 construct": "purchased DiscoverX", "T3 sequence (P36888 27-993 D835V)": "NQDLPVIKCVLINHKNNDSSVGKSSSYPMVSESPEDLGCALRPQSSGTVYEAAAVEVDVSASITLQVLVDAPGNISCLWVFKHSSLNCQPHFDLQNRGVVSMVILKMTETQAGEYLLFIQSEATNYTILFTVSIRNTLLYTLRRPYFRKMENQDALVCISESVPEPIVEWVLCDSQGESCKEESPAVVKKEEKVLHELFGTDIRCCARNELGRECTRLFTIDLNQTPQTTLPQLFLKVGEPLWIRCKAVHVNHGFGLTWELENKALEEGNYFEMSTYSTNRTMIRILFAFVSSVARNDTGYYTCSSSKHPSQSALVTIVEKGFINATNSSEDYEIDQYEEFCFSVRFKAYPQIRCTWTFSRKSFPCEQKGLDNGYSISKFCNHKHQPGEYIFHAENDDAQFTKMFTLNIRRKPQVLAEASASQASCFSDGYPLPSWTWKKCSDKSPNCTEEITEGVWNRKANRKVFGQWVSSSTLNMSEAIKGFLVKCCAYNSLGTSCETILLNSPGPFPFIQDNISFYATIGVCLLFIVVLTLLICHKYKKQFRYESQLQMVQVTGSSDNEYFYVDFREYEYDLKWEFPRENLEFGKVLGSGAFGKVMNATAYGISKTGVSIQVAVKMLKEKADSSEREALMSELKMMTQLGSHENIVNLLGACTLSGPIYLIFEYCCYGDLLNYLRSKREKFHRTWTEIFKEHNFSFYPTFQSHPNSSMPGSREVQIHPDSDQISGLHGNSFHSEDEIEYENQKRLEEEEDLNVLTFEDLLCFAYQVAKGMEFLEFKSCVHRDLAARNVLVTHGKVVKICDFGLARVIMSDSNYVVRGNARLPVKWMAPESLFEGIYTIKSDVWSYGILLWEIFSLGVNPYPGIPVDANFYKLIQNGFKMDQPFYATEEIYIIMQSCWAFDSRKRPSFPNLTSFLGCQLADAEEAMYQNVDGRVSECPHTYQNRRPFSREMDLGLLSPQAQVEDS", "test": "KINOMEscan Assay (DiscoverX)", "assay_type": "binding", "conditions": "FLT3(D835V) mutant; 10 μM; read-out: % DMSO Ctrl"}, "HIPK2": {"target": "T4, HIPK2 (Homo sapiens, UniProt Q9H2X6)", "T4 construct": "purchased DiscoverX", "test": "KINOMEscan Assay (DiscoverX)", "assay_type": "binding", "conditions": "HIPK2; 10 μM"}, "HIPK3": {"target": "T5, HIPK3 (Homo sapiens, UniProt Q9H422)", "T5 construct": "purchased DiscoverX", "test": "KINOMEscan Assay (DiscoverX)", "assay_type": "binding", "conditions": "HIPK3; 10 μM"}, "IRAK1": {"target": "T6, IRAK1 (Homo sapiens, UniProt P51617)", "T6 construct": "purchased DiscoverX", "test": "KINOMEscan Assay (DiscoverX)", "assay_type": "binding", "conditions": "IRAK1; 10 μM"}, "[3]": {"target": "T7, JAK3(JH1DOMAIN-CATALYTIC) (Homo sapiens, UniProt P52333)", "T7 construct": "JH1DOMAIN; purchased DiscoverX", "T7 sequence (P52333 822-1111 limits assumed)": "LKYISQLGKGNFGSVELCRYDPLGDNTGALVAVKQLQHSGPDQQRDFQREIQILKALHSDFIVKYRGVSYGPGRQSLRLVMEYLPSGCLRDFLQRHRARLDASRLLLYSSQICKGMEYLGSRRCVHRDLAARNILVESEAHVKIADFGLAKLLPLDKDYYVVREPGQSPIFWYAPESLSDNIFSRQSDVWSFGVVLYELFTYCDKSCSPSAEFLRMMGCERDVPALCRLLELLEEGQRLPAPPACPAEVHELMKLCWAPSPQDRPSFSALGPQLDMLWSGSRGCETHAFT", "test": "KINOMEscan Assay (DiscoverX)", "assay_type": "binding", "conditions": "JAK3(JH1DOMAIN-[…]); 10 μM; read-out: % DMSO Ctrl"}, "PIK3CG": {"target": "T8, PIK3CG (Homo sapiens, UniProt P48736)", "T8 construct": "purchased DiscoverX", "test": "KINOMEscan Assay (DiscoverX)", "assay_type": "binding", "conditions": "read-out: % DMSO Ctrl"}, "PIM3": {"target": "T9, PIM3 (Homo sapiens, UniProt Q86V86)", "T9 construct": "purchased DiscoverX", "test": "KINOMEscan Assay (DiscoverX)", "assay_type": "binding", "conditions": "PIM3; 10 μM; read-out: % DMSO Ctrl"}, "VPS34": {"target": "T10, VPS34 (Homo sapiens, UniProt Q8NEB9)", "T10 construct": "purchased DiscoverX", "test": "KINOMEscan Assay (DiscoverX)", "assay_type": "binding", "conditions": "VPS34; 10 μM"}, "DYRK1A": {"target": "DYRK1A (Homo sapiens, UniProt Q13627)", "test": "FRET-based LanthaScreen Eu Kinase Binding Assay (Life Technologies)"}, "FLT3(ITD)": {"test_system": "FLT3(ITD)", "test": "KINOMEscan Assay (DiscoverX)", "assay_type": "binding", "conditions": "FLT3(ITD) mutant; 10 μM"}, "FLT3(ITD,D835V)": {"test_system": "FLT3(ITD,D835V)", "test": "KINOMEscan Assay (DiscoverX)", "assay_type": "binding", "conditions": "FLT3(ITD,D835V) mutant; 10 μM"}, "[4]": {"conditions": "10 μM, KI67 labeling of insulin cells"}}, "note": "pIC50: −log10 of the molar value.", "data": [{"molecule": "4-(7-Methoxy-1-methyl-β-carbolin-9-yl)propionitrile [Compound 20-1o]", "values": [{"measurement": "Human β-Cell proliferation", "setting": "[1]; 10 μM", "result": "1 (10)"}]}, {"molecule": "COc1ccc2c(c1)[nH]c1c(Cl)nccc12", "note": "[Compound 1-5, 1-Chloro-7-Methoxy-9H-β-Carboline]", "values": [{"measurement": "human β-cell proliferation (in words)", "setting": "[1]; [4]", "result": "very good human β-cell proliferation"}, {"measurement": "human β-cell proliferation (in words)", "setting": "[1]; concentration not given", "result": "human β-cell proliferation comparable to that of harmine"}]}, {"molecule": "COc1ccc2c(c1)[nH]c1c(N3CCC3)nccc12", "note": "[Compound 1-6a, 1-(Azetidin-1-yl)-7-Methoxy-9H-β-Carboline]", "values": [{"measurement": "human β-cell proliferation (in words)", "setting": "[1]; concentration not given", "result": "did not show any β-cell proliferation"}]}, {"molecule": "COc1ccc2c(c1)[nH]c1c(N3CCCC3)nccc12", "note": "[Compound 1-6b, 1-(Pyrrolidin-1-yl)-7-Methoxy-9H-β-Carboline]", "values": [{"measurement": "human β-cell proliferation (in words)", "setting": "[1]; concentration not given", "result": "did not show any β-cell proliferation"}]}, {"molecule": "COc1ccc2c(c1)[nH]c1c(N3CCCC3c3ccccc3)nccc12", "note": "(stereo not drawn) [Compound 1-6d, 1-(2-Phenylpyrrolidin-1-yl)-7-Methoxy-9H-β-Carboline]", "values": [{"measurement": "human β-cell proliferation (in words)", "setting": "[1]; concentration not given", "result": "did not show any β-cell proliferation"}]}, {"molecule": "COc1ccc2c(c1)[nH]c1c(N3CCCC3Cc3ccccc3)nccc12", "note": "(stereo not drawn) [Compound 1-6f, 1-(2-Benzylpyrrolidin-1-yl)-7-Methoxy-9H-β-Carboline]", "values": [{"measurement": "human β-cell proliferation (in words)", "setting": "[1]; concentration not given", "result": "did not show any β-cell proliferation"}]}, {"molecule": "COc1ccc2c(c1)[nH]c1c(CO)nccc12", "note": "[Compound 2-2, 1-Hydroxymethyl-7-Methoxy-9H-β-Carboline]", "values": [{"measurement": "beta cell toxicity", "setting": "[1]; at 30 μM", "result": "did not cause toxicity"}, {"measurement": "NFAT2 translocation to nucleus", "setting": "[2]", "result": "drove NFAT2 translocation to nucleus"}, {"measurement": "% DMSO Ctrl", "setting": "CSNK1G2", "result": "no inhibition"}, {"measurement": "% DMSO Ctrl", "setting": "CSNK2A1", "result": "no inhibition"}, {"measurement": "remaining binding at 10 µM", "setting": "FLT3(D835V)", "result": 37, "unit": "%"}, {"measurement": "% DMSO Ctrl", "setting": "HIPK2", "result": "no inhibition"}, {"measurement": "% DMSO Ctrl", "setting": "HIPK3", "result": "no inhibition"}, {"measurement": "% DMSO Ctrl", "setting": "IRAK1", "result": "no inhibition"}, {"measurement": "remaining binding at 10 µM", "setting": "[3]", "result": 99, "unit": "%"}, {"measurement": "remaining binding at 10 µM", "setting": "PIK3CG", "result": 44, "unit": "%"}, {"measurement": "remaining binding at 10 µM", "setting": "PIM3", "result": 77, "unit": "%"}, {"measurement": "% DMSO Ctrl", "setting": "VPS34", "result": "no inhibition"}]}, {"molecule": "COc1ccc2c(c1)[nH]c1c(C(C)=O)nccc12", "note": "[Compound 3-2, 1-acetyl-7-methoxy-9H-β-carboline]", "values": [{"measurement": "human β-cell proliferation (in words)", "setting": "[1]; [4]", "result": "reduced β-cell proliferation"}, {"measurement": "human β-cell proliferation (in words)", "setting": "[1]; 30 μM", "result": "proliferation in the range comparable to harmine"}, {"measurement": "human β-cell proliferation (in words)", "setting": "[1]; concentration not given", "result": "human β-cell proliferation comparable to that of harmine"}]}, {"molecule": "Cc1nccc2c1[nH]c1cc(OCCCCCC(N)=O)ccc12", "note": "[Compound 10-3e, 6-(7-oxy-1-methyl-9-H-b-carbolin)hexanamide]", "values": [{"measurement": "Human β-Cell proliferation", "setting": "[1]; 10 μM", "result": "0.2 (10)"}, {"measurement": "human β-cell proliferation (in words)", "setting": "[1]; concentration not given", "result": "reduced jβ-cell proliferation compared to harmine"}]}, {"molecule": "C=CCn1c2cc(OC)ccc2c2ccnc(C)c21", "note": "[Compound 20-1t, 3-(7-Methoxy-1-methyl-β-carbolin-9-yl)-propan-1-ene]", "values": [{"measurement": "pIC50", "setting": "DYRK1A", "result": 7.38}]}, {"molecule": "COc1ccc2c3ccnc(C)c3n(Cc3ccccc3)c2c1", "note": "[Compound 20-1x, 1-(7-Methoxy-1-methyl-β-carbolin-9-yl)-1-phenylmethane]", "values": [{"measurement": "pIC50", "setting": "DYRK1A", "result": 6.56}]}, {"molecule": "COc1ccc2c3ccnc(C)c3n(CCc3ccccc3)c2c1", "note": "[Compound 20-1y, 2-(7-Methoxy-1-methyl-β-carbolin-9-yl)-1-phenylethane]", "values": [{"measurement": "pIC50", "setting": "DYRK1A", "result": 7.51}]}, {"molecule": "COc1ccc2c3ccnc(C)c3n(CCCC(N)=O)c2c1", "note": "[Compound 20-2c, 4-(7-Methoxy-1-methyl-β-carbolin-9-yl)butanamide]", "values": [{"measurement": "% DMSO Ctrl", "setting": "FLT3(ITD)", "result": 57, "unit": "% DMSO Ctrl"}, {"measurement": "% DMSO Ctrl", "setting": "FLT3(ITD,D835V)", "result": 38, "unit": "% DMSO Ctrl"}]}, {"molecule": "CCCC(C)NC(=O)C(C)(C)CCn1c2cc(OC)ccc2c2ccnc(C)c21", "note": "(stereo not drawn) [Compound 20-10l, N-(1-methylbutyl)-4-(7-Methoxy-1-methyl-β-carbolin-9-yl)-α,α-dimethylbutanamide]", "values": [{"measurement": "pIC50", "setting": "DYRK1A", "result": 7.11}]}, {"molecule": "C#CCCn1c2cc(OC)ccc2c2ccnc(C)c21", "note": "[Compound 20-23b, 4-(7-Methoxy-1-methyl-β-carbolin-9-yl)-but-1-yne]", "values": [{"measurement": "pIC50", "setting": "DYRK1A", "result": 7.48}]}, {"molecule": "COCCn1cc(CCCn2c3cc(OC)ccc3c3ccnc(C)c32)nn1", "note": "[Compound 20-24b, 4-(3-(7-Methoxy-1-methyl-β-carbolin-9-yl)propyl)-1-(2-methoxyethyl)-1,2,3-triazole]", "values": [{"measurement": "pIC50", "setting": "DYRK1A", "result": 6.36}]}, {"molecule": "COc1ccc2c3ccnc(C)c3n(Cc3noc(N)n3)c2c1", "note": "[Compound 20-38a, 1-(1-(7-methoxy-1-methyl-β-carbolin-9-yl)methyl)-5-amino-1,2,4-oxadiazole]", "values": [{"measurement": "pIC50", "setting": "DYRK1A", "result": 6.86}]}, {"molecule": "COc1ccc2c3ccnc(C)c3n(CCc3noc(N)n3)c2c1", "note": "[Compound 20-38b, 3-(3-(7-methoxy-1-methyl-β-carbolin-9-yl)ethyl)-5-amino-1,2,4-oxadiazole]", "values": [{"measurement": "pIC50", "setting": "DYRK1A", "result": 7.18}]}, {"molecule": "COc1ccc2c3ccnc(C)c3n(CCCCc3noc(N)n3)c2c1", "note": "[Compound 20-38c, 5-(5-(7-methoxy-1-methyl-β-carbolin-9-yl)butyl)-5-amino-1,2,4-oxadiazole]", "values": [{"measurement": "pIC50", "setting": "DYRK1A", "result": 6.99}]}, {"molecule": "COc1ccc2c3ccnc(C)c3n(CCC(C)(C)C(N)=O)c2c1", "note": "[Compound 20-40, 2,2-dimethyl-4-(7-Methoxy-1-methyl-β-carbolin-9-yl)butanamide]", "values": [{"measurement": "pIC50", "setting": "DYRK1A", "result": 7.70}]}, {"molecule": "Ethyl 4-(7-Methoxy-1-methyl-β-carbolin-9-yl)butanecarboximidate hydrochloride [Compound 20-22]", "values": [{"measurement": "Human β-Cell proliferation", "setting": "[1]; 10 μM", "result": "0.8 (10)"}]}]}
